Experimental findings from US20240285808A1, “MOLECULAR PROBES FOR IN VIVO DETECTION OF ALDEHYDES” (The General Hospital Corporation, priority 2021, published 2024) are described below.

For assay [1], the system named is human fibrotic/cirrhotic liver associated with NASH and normal liver tissue. Kind of assay: LA-ICP-MS gadolinium imaging of human liver sections incubated with Gd-9. Type of assay: binding. As to the method:
Liver tissues were obtained from a total of 9 anesthetized patients who underwent surgical resection at Massachusetts General Hospital, and analyzed in accordance with a protocol approved by the Massachusetts General Hospital's Institutional Review Board.
Tissue Analysis for Human Tissues
The dissected tissues were immediately snap frozen in OCT using liquid nitrogen, sectioned into 10-μm-thick slices and stored at −80° C. Subsequently, the tissue sections were first allowed to warm to room temperature for 10 min and then fixed in 60% ethanol for 30 min, and washed with PBS. The following steps were the same as described above for the Sirius red staining and DNPH-reactivity assay.
LA-ICP-MS Gadolinium Imaging Analysis
Sample preparation. Harvested rat livers after MR imaging were immediately snapfrozen in OCT using liquid nitrogen, sectioned into 10-μm-thick slices, stored in −80° C. One slice was assessed by LA-ICP-MS directly. One adjacent slide was incubated with 0.1 mM Gd-9 at 37° C. for 2 h, followed with 0.2 mM NaBH3CN for 2 h and washed with PBS (3×10 min). Another adjacent slide was incubated with 0.1 mM Gd-9 and 10 mM hydrazine at 37° C. for 2 h, followed with 0.2 mM NaBH3CN for 2 hand washed with PBS (3×10 min). Similar procedures were carried out for human tissues. Slides were incubated with 0.1 mM Gd-9 at 37° C. for 2h, followed with 0.2 mM NaBH3CN for 2 h and washed with PBS (3×10 min).
Gadolinium mapping. Elemental images were collected from sections of liver tissue via laser ablation inductively coupled plasma mass spectrometry at the Biomedical National Elemental Imaging Resource (BNEIR). The instrumentation used was a New Wave Research 213 nm laser ablation system with a 10 cm^2 sample chamber, interfaced with an Agilent 7900 ICP-MS system. Samples were ablated in no-gas mode, with helium as a carrier gas at a flow rate of […]. The laser power was 65% and the frequency was 20 Hz. Ablation patterns consisted of continuous lines, with either a 12 μm or […] square beam and a scan speed of 120 μm sec^−1 or 200 μm sec^−1 respectively, as noted. The acquisitions time for gadolinium (mass 157) was 0.015 s. Elemental imaging data was quantified using metal-doped gelatin standards prepared at BNEIR and National Institute of Standards and Technology (NIST) certified references material 1515 (apple leaves). Data reduction was performed in the Iolite software application, using carbon (mass 13) as an internal standard to normalize the data.
The applicability of Gd-9 to assess fibrogenesis in human liver specimens was investigated. Resected human fibrotic/cirrhotic liver associated with NASH (n=5) and normal liver tissue (n=4) (Table C) were sectioned and stained for Lys^Ald.

The subject of assay [2] is lung of SAMP8/SAMR1 mice with TAC. Nature of the assay: MR imaging of lung in transverse aortic constriction (TAC) model. Type of assay: in vivo, mouse. The settings on record: 20 min post injection. An excerpt: Combined Heart and Lung Fibrosis Model:
Left ventricular dysfunction with pulmonary hypertension was induced by left thoracotomy transverse aortic constriction surgery (TAC) in 6-month-old senescence-accelerated-prone/resistant mice (SAMP8/SAMR1), which is a well-established model of pressure overload-induced cardiac hypertrophy that can induce heart and lung fibrosis. The transverse aorta was encircled with 7-0 nylon suture and tied tightly around a pre-sterilized, blunt-end of a 27-gauge needle. After securing the knot, the needle was removed, and aortic flow resumed. Another two groups of SAMP8 and SAMR1 mice received sham surgery as control. 3-weeks post-surgery, mice were anesthetized with isoflurane (1.5%) and imaged at a 4.7 Tesla Bruker MRI scanner.
For combined heart and lung imaging, a series of baseline images (2D T1 weighted FLASH for heart and 3D-UTE for lung) were first acquired. 2D T1 weighted FLASH: repetition time/echo time=18.24/3.54 ms; flip angle, 50°; field of view, 36×36 mm^2; matrix size, 138×138 mm^2; slice thickness, 1 mm; acquisition time, 3 minutes 50 seconds. 3D-UTE: repetition time/echo time=4/0.01225 ms; flip angle, 16°; field of view, 32×32 mm^2; matrix size, 128×128 mm^2; slice thickness, 0.25 mm; acquisition time, 3 minutes 36 seconds. Then a bolus of Gd-9 complex was administered i.v. and imaging performed for a period of 40 min p.i. with the repetition acquisition of 2D T1 weighted FLASH and 3D-UTE sequences. Following the imaging session, animals were sacrificed and heart and lung tissue was subjected to histopathologic analysis.
For lung imaging analysis, RARE image, FLASH image pre-contrast and immediately post-contrast were used to define regions of interest (ROIs) in the lung that excluded vessels and airways. A total of 6 lung ROIs were defined on axial UTE images to obtain signal intensity (SI); ROIs in the dorsal muscle in each slice were also defined as reference; ROIs in the field of view without any tissue (air) were used to measure the variation in background signal. Then the lung-to muscle ratio (LMR) or contrast to noise ratio (CNR) was averaged from the 6 slices to calculate changes in LMR (ΔLMR) or CNR (ΔCNR) at each time point.

For assay [3], the system named is liver of bile duct ligated (BDL) rats. Kind of assay: MR imaging of liver in bile duct ligated rat liver fibrosis model. The class given is in vivo. The settings on record: for ΔCNR of liver: 30 min post injection. On the procedure:
Rat Liver Fibrosis Model:
Liver fibrosis was induced in male Sprague Dawley rats (n=7) by ligation of the common bile duct (CD®, Charles River Labs, Wilmington, MA). Control animals (n=4) underwent a sham procedure. The BDL and sham rats were imaged 10 days following ligation with a dose of […] of Gd-9 based on body surface area.
T1-mapping was performed with a flow sensitive alternating inversion recovery (FAIR) sequence: repetition time/echo time=11000/33.8 ms; flip angle, 90°; inversion times: 100, 200, 400, 500, 600, 1000, 1500, 2000 ms; field of view, 60×60 mm^2; matrix size, 140×140; slice thickness, 2 mm; acquisition time, 3 minutes 34 seconds. T1 weighted imaging with 3D FLASH: repetition time/echo time=20/2.3 ms; flip angle, 30°; field of view, 60×60 mm^2; matrix size: 127×127; slice thickness, 0.5 mm; acquisition time, 3 minutes 10 seconds. Following the imaging session, animals were sacrificed (30 min p.i.) and liver tissue was subjected to histopathologic analysis.
Longitudinal relaxation rate (R1) maps were generated from the T1 mapping images using a custom written MATLAB (Mathworks, Natick, MA) program for voxel wise fitting of the inversion recovery signal intensities as a function of the inversion time. A region of interest (ROI) was manually traced encompassing the liver parenchyma while avoiding major blood vessels. ΔR1 was calculated by subtracting the R1Pre from R1Post, eq S3. ΔCNR were analyzed from 3D T1 weighted FLASH images, the same as that in mouse.

Where only a bound is given, the exact number is not on record here.

Take `NN1CCN(C(=O)CCC(C(=O)[O-])N2CCN(CC(=O)[O-])CCN(CC(=O)[O-])CCN(C(CCC(=O)N3CCN(N)CC3)C(=O)[O-])CC2)CC1.[Gd+3]` (stereo not drawn) [Gd-9, cis-1,4-Gd-(CHyd)2]: in assay [1] (across all samples), the “average Gd concentration in fibrotic human liver” value is reported as 80.4±15.5 ppm. The “average Gd concentration in normal liver” value in assay [1] (across all samples) is on record as 23.7±10.8 ppm. Also, the “average Gd concentration in Lys^Ald positive areas” value in assay [1] (fibrotic human liver slices incubated with 0.1 mM probe) is on record as 30-200 ppm Gd. Further, the “average Gd concentration in regions with low Lys^Ald” value in assay [1] (human liver slices incubated with 0.1 mM probe) is less than 30 ppm Gd. The ΔCNR of lung is on record as 1.2 ± 0.3 in assay [2] (SAMP1-TAC), 0.8 ± 0.5 in assay [2] (SAMP8-Sham), 3.1 ± 0.9 in assay [2] (SAMP8-TAC) and 0.4 ± 0.2 in assay [2] (Sham). For the same compound, in assay [3] (30 min), the “fold higher liver to muscle ΔCNR in BDL rats compared to sham rats” value was 4 fold. In addition, the “fold higher ΔR1 in BDL rats compared to sham rats” value in assay [3] (30 min p.i.) was found to be 5 fold. Also, the ΔCNR of liver in assay [3] (BDL rats (n = 7)) worked out at 3.4±1.6; in assay [3] (Sham rats (n = 4)), 0.6±0.2. Also, the “change of liver longitudinal relaxation rate ΔR1” value in assay [3] (BDL rats, 30 min p.i.) came to 0.6±0.2; in assay [3] (sham rats, 30 min p.i.), 0.1±0.03. The compound further had a ΔR1 in assay [3] (rat model, in vivo imaging) of 0.6 s⁻¹.
